Results: article PMC7175153, “Testing the Pharmacokinetic Interactions of 24 Colonic Flavonoid Metabolites with Human Serum Albumin and Cytochrome P450 Enzymes” (Biomolecules, 2020)
Read-outs that look alike come from different tables or passages of the source.

Assays:
[1] = target: T1, human serum albumin (HSA) (Homo sapiens, UniProt P02768); test: HSA-ligand interaction by fluorescence spectroscopy (quenching, Stern-Volmer and Hyperquad fitting); assay type: binding; details: for Kd: decimal log ±SEM of K in L/mol, Hyperquad non-linear fitting, PBS pH 7.4; for Effect on HSA fluorescence signal at 340 nm / LogKSV (Stern-Volmer quenching constant): HSA 2 μM; for Effect on HSA fluorescence signal at 340 nm: metabolite 0-8 μM, λex 295 nm; for LogKSV (Stern-Volmer quenching constant): decimal log ±SEM of KSV in L/mol, PBS pH 7.4, λex 295 nm, λem 340 nm
T1 construct: purchased Sigma-Aldrich
Procedure: Albumin-ligand interactions were investigated employing a Hitachi F-4500 fluorimeter (Tokyo, Japan), measurements were performed in phosphate-buffered saline (PBS, pH 7.4), in the presence of air at room temperature. Absorption spectra of the flavonoid metabolites were also recorded in PBS, applying a HALO DB-20 UV-Vis spectrophotometer (Dynamica, London, UK). Because the inner filter effect can decrease the fluorescence emission signal of albumin, fluorescence spectra were corrected using the following equation [29, 30]:Icor = Iobs × e^(Aex^+ Aem^)/2(1) where Icor means the corrected and Iobs denotes the observed emission intensities at the wavelengths used, while Aex and Aem are the absorbance values of flavonoid metabolites at the excitation and emission wavelengths applied, respectively.
HSA-ligand interactions were evaluated using fluorescence quenching studies or the intrinsic fluoresce of the metabolite (if it strongly interfered with the emission signal of albumin). In quenching studies, the emission spectrum of HSA (2 μM) was recorded in the presence of increasing concentrations of microbial metabolites (0, 2, 3, 4, 5, 6, and 8 μM), using a 295 nm excitation wavelength. Data were evaluated based on linear and non-linear fitting, employing the Stern-Volmer equation (Equation (2)) and the Hyperquad2006 program package (Protonic Software; Leeds, UK), respectively. The Stern-Volmer equation was described as I0/I = 1 + KSV × [Q](2) where I0 and I denote the fluorescence emission intensities (λex = 295 nm, λem = 340 nm) of HSA in the absence and presence of colonic metabolites, respectively. Furthermore, KSV (unit: L/mol) and [Q] (unit: mol/L) are the Stern-Volmer quenching constant and the concentration of the quencher, respectively.
The fluorescence emission spectrum of 2H4MBA (2 μM) was recorded with HSA (0, 0.5, 1, 2, 3, 4 and 5 μM), using 295 nm excitation wavelength (the excitation maximum of 2H4MBA). The binding constants (K; unit: L/mol) of albumin-ligand complexes were determined by non-linear fitting using the Hyperquad2006 program, as has been reported. During this evaluation, absorbance values and fluorescence signals of both HSA and 2H4MBA were taken into account.

[2] = target: T2, HSA Site II (naproxen) (Homo sapiens, UniProt P02768); test: Displacement of Site II marker naproxen from HSA by ultrafiltration; assay type: binding; details: naproxen 1 μM, HSA 1.5 μM, metabolite 20 μM
T2 construct: purchased Sigma-Aldrich
Description: (§1) Then the concentrations of site markers in the filtrates were quantified by HPLC (see in 2.5).

[3] = target: T3, CYP2C19 (Homo sapiens, UniProt P33261); test: CYP2C19-catalyzed S-mephenytoin hydroxylation (CypExpress 2C19 kit); assay type: in vitro ADME; details: CypExpress 2C19 kit (recombinant CYP2C19), probe S-mephenytoin, metabolite 20 μM, S-mephenytoin 5 μM
T3 construct: purchased Sigma-Aldrich
Description: Effects of microbial metabolites on CYP2C19 enzyme were examined based on their impact on CYP2C19-catalyzed 4-hydroxymephenytoin formation, employing the previously reported method without modifications.
(§2) S-mephenytoin and 4-hydroxymephenytoin (CYP2C19 assay) as well as testosterone and 6β-hydroxytestosterone (CYP3A4 assay) were quantified by HPLC-UV employing the previously described methods without modifications.

[4] = system: HSA; details: cited from earlier work
[5] = set-up: method as in PMID 25168218; details: rat plasma, after Decalepis arayalpathra tuber extract; cited from earlier work
[6] = system: bovine serum albumin; details: cited from earlier work
[7] = cited from earlier work
[8] = system: CYP3A4; details: cited from earlier work
[9] = system: CYP2C9; details: cited from earlier work
[10] = system: CYP2C19; set-up: method as in PMID 24254844; details: cited from earlier work
[11] = target: T4, CYP3A4 (Homo sapiens, UniProt P08684); test: CYP3A4-catalyzed testosterone hydroxylation (CypExpress 3A4 kit); assay type: in vitro ADME; details: CypExpress 3A4 kit (recombinant CYP3A4), probe testosterone, metabolite 20 μM, testosterone 5 μM, read-out: Inhibition of CYP3A4 (decrease in metabolite formation)
T4 construct: purchased Sigma-Aldrich
Procedure: Inhibitory action of flavonoid metabolites on CYP3A4 enzyme was tested based on their effects on CYP3A4-catalyzed testosterone hydroxylation, using the previously described method without modifications.
as §2

[12] = target: T5, HSA Site I (warfarin) (Homo sapiens, UniProt P02768); test: Displacement of Site I marker warfarin from HSA by ultrafiltration; assay type: binding; details: warfarin 1 μM, HSA 5 μM, metabolite 20 μM
T5 construct: purchased Sigma-Aldrich
Description: as §1

[13] = target: CYP2C9 (Homo sapiens, UniProt P11712); test: CYP2C9-catalyzed diclofenac hydroxylation (CypExpress 2C9 kit)
Procedure: The inhibitory effects of colonic flavonoid metabolites were examined in vitro, applying CypExpress^TM Cytochrome P450 human kits.
Inhibition of CYP2C9 enzyme was examined based on CYP2C9-catalyzed 4′-hydroxydiclofenac formation in the presence of microbial metabolites, using the previously reported method with some modifications. […] The incubations were started with the addition of the enzyme. After 120 min incubation at 700 rpm and 30 °C in a thermomixer (Eppendorf, Hamburg, Germany), the reaction was stopped with the addition of 100 μL of ice-cold methanol. After centrifugation (10 min, 14,000 g, room temperature), the concentrations of diclofenac and 4′-hydroxydiclofenac were quantified with HPLC (see in 2.5).
The metabolite formation (% of control) was depicted vs. the concentrations of inhibitors in a decimal logarithmic scale, then IC50 values were determined employing the GraphPad Prism 8 software (San Diego, CA, USA).
Diclofenac and 4′-hydroxydiclofenac (CYP2C9 assay) were quantified by HPLC-UV as it was reported previously. […] The separation was carried out using a guard column (Phenomenex Security Guard C8, 4.0 × 3.0 mm) linked to an analytical column (Agilent Eclipse C8, 150 × 4.6 mm, 5 μm) at room temperature. […] Diclofenac and 4′-hydroxydiclofenac were detected at 275 nm.

[14] = read-out: LogK (binding constant of albumin-ligand complex) (converted)

T1 sequence (P02768 25-609): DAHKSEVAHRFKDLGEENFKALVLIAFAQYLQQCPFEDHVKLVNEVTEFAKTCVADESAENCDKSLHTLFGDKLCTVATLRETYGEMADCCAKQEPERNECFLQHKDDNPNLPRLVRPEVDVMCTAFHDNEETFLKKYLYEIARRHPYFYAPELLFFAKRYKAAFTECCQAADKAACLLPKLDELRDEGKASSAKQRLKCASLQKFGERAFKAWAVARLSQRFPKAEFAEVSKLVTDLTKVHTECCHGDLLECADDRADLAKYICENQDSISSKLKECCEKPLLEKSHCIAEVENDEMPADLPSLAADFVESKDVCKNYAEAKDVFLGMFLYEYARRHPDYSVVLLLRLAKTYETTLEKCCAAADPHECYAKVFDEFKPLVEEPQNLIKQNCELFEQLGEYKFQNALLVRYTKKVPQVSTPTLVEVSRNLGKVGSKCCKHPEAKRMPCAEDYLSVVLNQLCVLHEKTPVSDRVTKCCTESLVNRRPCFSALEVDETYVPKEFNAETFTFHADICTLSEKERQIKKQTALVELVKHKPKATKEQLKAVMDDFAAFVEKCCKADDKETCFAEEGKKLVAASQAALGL
T4 sequence (P08684 whole entry): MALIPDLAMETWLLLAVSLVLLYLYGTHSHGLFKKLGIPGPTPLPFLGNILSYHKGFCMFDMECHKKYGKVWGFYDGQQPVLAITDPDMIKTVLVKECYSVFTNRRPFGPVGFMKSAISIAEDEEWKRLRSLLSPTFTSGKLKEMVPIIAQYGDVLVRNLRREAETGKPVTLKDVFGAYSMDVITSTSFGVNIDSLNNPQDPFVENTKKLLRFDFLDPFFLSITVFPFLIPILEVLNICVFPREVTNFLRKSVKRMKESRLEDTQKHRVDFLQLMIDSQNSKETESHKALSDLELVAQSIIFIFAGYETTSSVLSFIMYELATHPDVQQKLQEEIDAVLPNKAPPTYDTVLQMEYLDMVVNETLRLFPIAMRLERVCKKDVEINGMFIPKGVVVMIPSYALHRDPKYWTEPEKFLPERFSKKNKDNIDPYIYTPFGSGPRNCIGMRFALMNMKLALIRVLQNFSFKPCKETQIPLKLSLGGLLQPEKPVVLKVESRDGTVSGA
T3 sequence (P33261 whole entry): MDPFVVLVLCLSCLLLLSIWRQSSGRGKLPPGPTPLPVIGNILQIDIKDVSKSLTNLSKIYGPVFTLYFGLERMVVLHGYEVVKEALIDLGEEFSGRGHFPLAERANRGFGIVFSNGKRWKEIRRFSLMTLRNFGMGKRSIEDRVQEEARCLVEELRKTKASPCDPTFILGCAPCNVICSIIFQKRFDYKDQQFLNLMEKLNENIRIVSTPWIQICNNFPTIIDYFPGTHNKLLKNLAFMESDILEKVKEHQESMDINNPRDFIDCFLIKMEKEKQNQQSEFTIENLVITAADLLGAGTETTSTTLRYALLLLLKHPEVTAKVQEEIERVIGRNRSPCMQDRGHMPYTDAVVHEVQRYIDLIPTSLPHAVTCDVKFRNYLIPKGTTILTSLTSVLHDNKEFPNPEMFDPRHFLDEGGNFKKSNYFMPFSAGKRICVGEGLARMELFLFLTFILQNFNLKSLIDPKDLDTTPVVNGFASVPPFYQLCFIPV
T5 sequence (P02768 25-609): as the sequence (P02768 25-609) above
CYP2C9 (Homo sapiens, UniProt P11712), sequence (P11712 whole entry): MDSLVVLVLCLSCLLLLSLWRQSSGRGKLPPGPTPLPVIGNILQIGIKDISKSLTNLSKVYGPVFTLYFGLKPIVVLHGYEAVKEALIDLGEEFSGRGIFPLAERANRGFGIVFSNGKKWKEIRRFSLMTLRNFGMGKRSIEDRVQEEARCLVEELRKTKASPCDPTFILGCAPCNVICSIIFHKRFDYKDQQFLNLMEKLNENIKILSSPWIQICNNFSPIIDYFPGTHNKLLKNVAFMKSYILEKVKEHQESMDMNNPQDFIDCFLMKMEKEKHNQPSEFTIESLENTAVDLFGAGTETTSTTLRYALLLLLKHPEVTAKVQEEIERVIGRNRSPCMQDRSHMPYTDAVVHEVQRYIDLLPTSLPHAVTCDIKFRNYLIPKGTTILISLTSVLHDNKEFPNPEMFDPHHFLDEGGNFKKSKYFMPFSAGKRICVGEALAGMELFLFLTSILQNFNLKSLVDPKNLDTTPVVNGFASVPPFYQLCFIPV
T2 sequence (P02768 25-609): as the sequence (P02768 25-609) above

COc1ccc(C(=O)O)c(O)c1 [2H4MBA, 2-hydroxy-4-methoxybenzoic acid]
Kd [1, 14]: 7.24 µM | Concentration of naproxen in the filtrate [2]: statistically significant (p < 0.05) but weak elevation | inhibition at 20 μM [3]: < 30% | logK of 2H4MBA-HSA complex ([4]; quenching study): 3.2 | Cmax [5]: 7.7 µM

O=C(O)/C=C/c1cccc(O)c1 [3CA, 3-coumaric acid]
Effect on HSA fluorescence signal at 340 nm [1]: significant decrease | Kd [1, 14]: 72.4 µM | LogKSV (Stern-Volmer quenching constant) [1]: 4.13 ± 0.02 | logK of 3CA-bovine serum albumin complex [6]: 4.1 | Concentration in the circulation [7]: low nanomolar concentrations

COc1cc(CC(=O)O)ccc1O [3M4HPAA, 3-methoxy-4-hydroxyphenylacetic acid]
logK toward bovine serum albumin [6]: 3.8

O=C(O)/C=C/c1ccc(O)cc1 [4-coumaric acid]
Effect on CYP3A4 enzyme [8]: did not influence

COc1cc(C(=O)O)ccc1O [4-hydroxy-3-methoxy-benzoic acid]
Cmax ([7]; healthy human volunteers, orally administered): 5.7 µM

O=C(O)c1ccc(O)cc1 [4HBA, 4-hydroxybenzoic acid]
logK of complex with HSA [4]: no interaction | Inhibition of CYP2C9 [9]: did not inhibit | Inhibition of CYP2C19 [10]: did not inhibit | Effect on CYP3A4 enzyme [8]: did not influence

CC(=O)c1ccc(O)cc1O [24DHAP, 2,4-dihydroxyacetophenone]
Effect on HSA fluorescence signal at 340 nm [1]: significant decrease | Kd [1, 14]: 27.5 µM | LogKSV (Stern-Volmer quenching constant) [1]: 4.39 ± 0.06 | inhibition at 20 μM [11]: < 30%

O=C(O)c1ccc(O)cc1O [24DHBA, 2,4-dihydroxybenzoic acid]
logK of complex with HSA [4]: 3.2

O=C(O)c1ccc(O)c(O)c1 [34DHBA, 3,4-dihydroxybenzoic acid]
inhibition at 20 μM [3]: < 30% | logK of complex with HSA [4]: 3.1

O=C(O)CCc1ccc(O)cc1 [34HPPA, 3-(4-hydroxyphenyl)propionic acid]
Inhibition of CYP2C9 [9]: did not inhibit | Inhibition of CYP2C19 [10]: did not inhibit | Effect on CYP3A4 enzyme [8]: did not influence

CC(C(=O)c1ccc(O)cc1O)c1ccc(O)cc1 (stereo not shown) [DESMA, 1-(2,4-dihydroxyphenyl)-2-(4-hydroxyphenyl)-1-propanone]
Effect on HSA fluorescence signal at 340 nm [1]: significant decrease | Kd [1, 14]: 8.32 µM | LogKSV (Stern-Volmer quenching constant) [1]: 4.99 ± 0.01 | Concentration of warfarin in the filtrate [12]: significantly increased | IC50 [13]: 6.6 µM | α (IC50 of the inhibitor divided by the IC50 of the positive control) ([13]; human, 120 min, pH 7.5): 5.00 | inhibition at 20 μM [3]: < 30% | inhibition at 20 μM [11]: < 30% | Plasma concentrations ([7]; after dietary intake or high consumption of soy products, low nanomolar upward): ≤ 0.5 µM | Peak plasma concentration ([7]; after ingestion of 60 g baked soybean powder): 300−500 nM

O=C(O)CNC(=O)c1ccccc1 [HIPA, hippuric acid]
inhibition at 20 μM [3]: < 30% | logK of complex with HSA [4]: 3.8 | Inhibition of CYP2C9 [9]: inhibited only at very high concentrations (e.g., 100 μM) | Inhibition of CYP3A4-catalyzed testosterone hydroxylation ([8]; 1-100 μM range): did not show relevant inhibition | Inhibition of CYP3A4-catalyzed testosterone hydroxylation [8]: considerable inhibition only above 50 μM concentrations

Oc1cc(O)cc(O)c1 [PHLO, phloroglucinol]
inhibition at 20 μM [11]: ~40% | Peak plasma concentration ([7]; healthy human volunteers, oral 160 mg PHLO): approximately 5 μM

Oc1cccc(O)c1O [PYR, pyrogallol]
Effect on HSA fluorescence signal at 340 nm [1]: significant decrease | Kd ([1]; LogK (binding constant of albumin-ligand complex)): 20.9 µM | LogKSV (Stern-Volmer quenching constant) [1]: 4.64 ± 0.03 | Concentration of warfarin in the filtrate [12]: significantly increased | logK of PYR-HSA complex [4]: 4.5 | Peak plasma concentration ([7]; healthy humans, black tea extract 2650 mg, plasma not treated with sulfatase): approximately 7 μM

Oc1cccc(O)c1 [RES, resorcinol]
inhibition at 20 μM [11]: ~65%

O=c1c(-c2ccc(O)cc2)coc2cc(O)ccc12 [daidzein]
Inhibition of CYP2C9-catalyzed hydroxylation of diclofenac [9]: inhibits
